Experimental data as given in patent US20260250318A1, “COMPOSITIONS AND METHODS FOR CROSSING THE BLOOD BRAIN BARRIER” (VOYAGER THERAPEUTICS, INC., priority 2022, published 2026).

Experiments:
[1] = tested on: brain; test: Matured TTM-001 and TTM-002 variants, NGS enrichment in mouse brain; format: in vivo, mice; settings: relative to AAV9 control
[2] = tested on: brains, heart, liver, muscle, and DRG of the NHPs; test: Maturation of TTM-001 and TTM-002 capsids, NGS enrichment in NHP tissues; format: in vivo; settings: relative to AAV9 control
Outline: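 Variants carry mutations within and flanking the loop IV peptide insert: positions 450–466 were triplet-randomized, while positions 449–466 received low-frequency point mutations. The combined pool went into two NHPs, and each peptide was scored by NGS enrichment ratio against AAV9.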

[3] = NGS fold-enrichment, mouse brain
[4] = NGS fold-enrichment of RNA, NHP brain
[5] = NGS fold-enrichment, NHP liver DNA
[6] = NGS fold-enrichment, NHP liver RNA
[7] = NGS fold-enrichment, NHP muscle
[8] = NGS fold-enrichment, brain of mice
[9] = NGS fold-enrichment, DRG of NHPs
[10] = NGS fold-enrichment, RNA, brain of NHPs
[11] = NGS fold-enrichment, heart of NHPs
[12] = NGS fold-enrichment, liver DNA of NHPs
[13] = NGS fold-enrichment, liver RNA of NHPs
[14] = NGS fold-enrichment, muscle of NHPs

Row | Sequence | Fold Enrichment relative to AAV9, Brain (Mouse) [1, 3] | Fold Enrichment relative to AAV9, Brain (NHP) [2, 4] | Fold Enrichment relative to AAV9, DRG (NHP) ([2]; NGS fold-enrichment, NHP DRG) | Fold Enrichment relative to AAV9, Heart (NHP) ([2]; NGS fold-enrichment, NHP heart) | Fold Enrichment relative to AAV9, Liver DNA (NHP) [2, 5] | Fold Enrichment relative to AAV9, Liver RNA (NHP) [2, 6] | Fold Enrichment relative to AAV9, Muscle (NHP) [2, 7] | Fold Enrichment relative to AAV9, Brain (Mouse) [1, 8] | Fold Enrichment relative to AAV9, DRG (NHP) [2, 9] | Fold Enrichment relative to AAV9, Brain (NHP) [2, 10] | Fold Enrichment relative to AAV9, Heart (NHP) [2, 11] | Fold Enrichment relative to AAV9, Liver DNA (NHP) [2, 12] | Fold Enrichment relative to AAV9, Liver RNA (NHP) [2, 13] | Fold Enrichment relative to AAV9, Muscle (NHP) [2, 14] | other results
1 | KTENASGSPHSKAQNQQT | – | – | – | – | – | – | – | – | – | – | – | – | – | – | Fold Enrichment relative to AAV9, Brain (Mouse) ([1]; mouse brain): 88.439 fold; Fold Enrichment relative to AAV9, Brain (NHP) ([2]; NGS fold-enrichment of matured AAV capsid variants, NHP brain, RNA): 58.187 fold; Fold Enrichment relative to AAV9, DRG (NHP) ([2]; NHP DRG): 0.000 fold; Fold Enrichment relative to AAV9, Heart (NHP) ([2]; NHP heart): 0.038 fold; Fold Enrichment relative to AAV9, Liver DNA (NHP) ([2]; NHP liver, DNA): 0.129 fold; Fold Enrichment relative to AAV9, Liver RNA (NHP) ([2]; NHP liver, RNA): 0.371 fold; Fold Enrichment relative to AAV9, Muscle (NHP) ([2]; NHP muscle): 0.000 fold
2 | KTENGSASPHSKALNQQT (KTFNGSASPHSKALNQQT) | 31.855 fold | 84.258 fold | 0.000 fold | 0.122 fold | 0.037 fold | 0.104 fold | 0.000 fold | – | – | – | – | – | – | – | –
3 | KTENISGSPHSKAQNQQT | 83.118 fold | 76.072 fold | 0.000 fold | 0.000 fold | 0.132 fold | 0.115 fold | 0.000 fold | 83.118 fold | 0.000 fold | 76.072 fold | 0.000 fold | 0.132 fold | 0.115 fold | 0.000 fold | –
4 | KTENKSGSPHSKAQNQQT | 31.182 fold | 103.854 fold | 0.000 fold | 0.037 fold | 0.119 fold | 0.000 fold | 0.000 fold | – | – | – | – | – | – | – | –
5 | KTENLSGSPHSKAQNQQT | – | – | – | – | – | – | – | 107.385 fold | 0.070 fold | 70.303 fold | 0.000 fold | 0.470 fold | 0.395 fold | 0.000 fold | –
6 | KTENMSGSPHSKAQNQQT | 130.568 fold | 89.247 fold | 0.000 fold | 0.000 fold | 0.260 fold | 0.000 fold | 0.000 fold | 130.568 fold | 0.000 fold | 89.247 fold | 0.000 fold | 0.260 fold | 0.000 fold | 0.000 fold | –
7 | KTENTSGSPHSKAQNQQT | – | – | – | – | – | – | – | 96.249 fold | 0.000 fold | 74.061 fold | 0.000 fold | 0.730 fold | 0.233 fold | 0.218 fold | –
8 | KTENVSGSPHSKAQNQQT | 108.591 fold | 88.506 fold | 0.000 fold | 0.000 fold | 0.112 fold | 0.964 fold | 0.000 fold | 108.591 fold | 0.000 fold | 88.506 fold | 0.000 fold | 0.112 fold | 0.964 fold | 0.000 fold | –
